Measured values reported in patent publication US20230382925A1, “MODULATORS OF CYSTIC FIBROSIS TRANSMEMBRANE CONDUCTANCE REGULATOR” (VERTEX PHARMACEUTICALS INCORPORATED, priority 2020, published 2023).
Where two headings read alike, the source gives them in different places.

Biological target: CFTR (Homo sapiens, UniProt P13569)
Assay: Membrane Potential Dye, Enteroid Assay B
Assay type: cell-based
Outline: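 Human intestinal enteroid cells exposed to compound 18-24 h at 37 °C, then loaded with methyl oxonol membrane-potential dye plus CaCC blockers. Chloride transport triggered in chloride-free buffer with 10 μM forskolin, 100 μM IBMX, 300 nM Compound III; fluorescence read 15 min, expressed as % of triple-corrector/potentiator combination control.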

[1] = Table 10, read-out: Ent. B EC50

Sequence of CFTR (P13569 with tags, fused parts or gaps DEL508-508): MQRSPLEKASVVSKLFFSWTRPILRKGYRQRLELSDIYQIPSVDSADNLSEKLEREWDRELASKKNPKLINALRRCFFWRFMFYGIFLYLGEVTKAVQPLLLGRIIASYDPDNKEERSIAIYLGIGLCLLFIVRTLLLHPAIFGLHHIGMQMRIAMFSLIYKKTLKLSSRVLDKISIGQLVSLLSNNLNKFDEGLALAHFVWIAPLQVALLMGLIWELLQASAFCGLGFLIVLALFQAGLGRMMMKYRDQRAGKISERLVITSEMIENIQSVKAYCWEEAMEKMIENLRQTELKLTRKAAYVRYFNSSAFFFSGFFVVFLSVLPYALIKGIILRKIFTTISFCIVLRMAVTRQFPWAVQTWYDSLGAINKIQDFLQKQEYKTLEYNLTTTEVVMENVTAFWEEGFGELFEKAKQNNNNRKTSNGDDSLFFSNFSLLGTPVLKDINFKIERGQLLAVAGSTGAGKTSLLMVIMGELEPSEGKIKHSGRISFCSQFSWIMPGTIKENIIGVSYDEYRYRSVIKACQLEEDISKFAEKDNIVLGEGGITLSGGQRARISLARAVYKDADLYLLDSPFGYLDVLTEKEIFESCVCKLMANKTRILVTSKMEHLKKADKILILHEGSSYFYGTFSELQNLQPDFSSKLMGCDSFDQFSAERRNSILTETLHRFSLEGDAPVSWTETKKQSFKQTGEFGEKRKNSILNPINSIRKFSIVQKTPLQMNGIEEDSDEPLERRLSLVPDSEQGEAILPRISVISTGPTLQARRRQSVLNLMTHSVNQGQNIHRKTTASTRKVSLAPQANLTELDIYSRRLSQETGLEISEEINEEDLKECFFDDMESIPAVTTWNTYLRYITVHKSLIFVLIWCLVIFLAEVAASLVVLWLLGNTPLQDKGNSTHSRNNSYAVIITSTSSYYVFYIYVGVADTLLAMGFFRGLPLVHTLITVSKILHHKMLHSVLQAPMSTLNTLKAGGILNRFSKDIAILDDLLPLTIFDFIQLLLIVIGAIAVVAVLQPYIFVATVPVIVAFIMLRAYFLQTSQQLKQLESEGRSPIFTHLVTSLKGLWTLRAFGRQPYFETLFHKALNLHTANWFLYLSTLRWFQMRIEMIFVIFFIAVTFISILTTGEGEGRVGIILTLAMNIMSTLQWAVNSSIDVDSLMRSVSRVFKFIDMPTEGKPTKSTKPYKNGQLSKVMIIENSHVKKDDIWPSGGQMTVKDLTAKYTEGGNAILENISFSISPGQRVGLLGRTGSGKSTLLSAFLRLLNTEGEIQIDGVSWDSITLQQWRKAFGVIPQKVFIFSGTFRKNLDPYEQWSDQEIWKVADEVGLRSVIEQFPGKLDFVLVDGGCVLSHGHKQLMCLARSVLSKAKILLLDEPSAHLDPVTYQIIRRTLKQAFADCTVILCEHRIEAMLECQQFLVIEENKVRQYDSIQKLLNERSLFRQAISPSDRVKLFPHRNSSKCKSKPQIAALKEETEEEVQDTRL

Ent. B Max Activity (%) (Table 9)	EC50 (Table 9, read-out: Ent. B EC50)	Ent. B Max Activity (%) (Table 10)	EC50 [1]	SMILES	other results
+++ (+++ is >60%)	< 1000 nM			COCCN[C@H]1C[C@]2(C1)C[C@H](N1C(=O)c3cccc(c3)S(=O)(=O)Nc3nc(cc(-c4c(C)cccc4C)n3)OC[C@H]1CC1(C(F)(F)F)CC1)C2 (some centres unmarked) [Compound 270]	
		++ (++ is 30-60%)	< 1000 nM	Cc1cccc(C)c1-c1cc2nc(n1)NS(=O)(=O)c1cccc(c1)C(=O)N(C1CC3(COC(=O)N3C)C1)[C@H](CC(C)(C)C)CO2 (single isomer, unassigned) [Compound 174]	
+++ (+++ is >60%)	1000 to 3000 nM			COCCN1CC(N2C(=O)c3cccc(c3)S(=O)(=O)Nc3nc(cc(-c4c(C)cccc4C)n3)OC[C@H]2CC(C)C)CC1(C)C (stereo in doubt) [Compound 277]	
		+ (+ is <300%)		Cc1cccc(C)c1-c1cc2nc(n1)NS(=O)(=O)c1cccc(c1)C(=O)N(C1CCCCC1)[C@H](CC(C)(C)C)CO2 [Compound 208]	
		++ (++ is 30-60%)	< 1000 nM	Cc1cccc(C)c1-c1cc2nc(n1)NS(=O)(=O)c1cccc(c1)C(=O)N(C1CC3(CC3)C1)[C@H](CCC(C)(C)O)CO2 [Compound 52, (11R)-6-(2,6-Dimethylphenyl)-11-(3-hydroxy-3-methyl-butyl)-2,2-dioxo-12-spiro[2.3]hexan-5-yl-9-oxa-2λ^6-thia-3,5,12,19-tetrazatricyclo[12.3.1.14,8]nonadeca-1(18),4(19),5,7,14,16-hexaen-13-one]	
		+++ (+++ is >60%)	< 1000 nM	Cc1cccc(C)c1-c1cc2nc(n1)NS(=O)(=O)c1cccc(n1)C(=O)N(C1CC3(C1)CC(C(C)(C)O)C3)[C@H](CC(C)(C)C)CO2 (single isomer, unassigned) [Compound 161]	
+++ (+++ is >60%)	< 1000 nM			Cc1cccc(C)c1-c1cc2nc(n1)NS(=O)(=O)c1cccc(c1)C(=O)N(C1CC3(CCN(CCOC(C)C)CC3)C1)[C@H](CC(C)(C)C(F)(F)F)CO2 [Compound 189, (11R)-6-(2,6-dimethylphenyl)-12-{7-[2-(propan-2-yloxy)ethyl]-7-azaspiro[3.5]nonan-2-yl}-11-(3,3,3-trifluoro-2,2-dimethylpropyl)-9-oxa-2λ^6-thia-3,5,12,19-tetraazatricyclo[12.3.1.14,8]nonadeca-1(17),4(19),5,7,14(18),15-hexaene-2,2,13-trione]	
		+++ (+++ is >60%)	< 1000 nM	Cc1cccc(C)c1-c1cc2nc(n1)NS(=O)(=O)c1cccc(c1)C(=O)N(c1cn(C)nc1C)[C@H](CC(C)(C)C)CO2 [Compound 227]	
+++ (+++ is >60%)	< 1000 nM			Cc1cccc(C)c1-c1cc2nc(n1)NS(=O)(=O)c1cccc(c1)C(=O)N([C@H]1C[C@@H](CN(C)C)C1)[C@H](CC(C)C)CO2 (single isomer, unassigned) [Compound 105]	
+++ (+++ is >60%)	< 1000 nM			Cc1cccc(C)c1-c1cc2nc(n1)NS(=O)(=O)c1cccc(c1)C(=O)N([C@H]1C[C@@H](NC(=O)OC(C)(C)C)C1)[C@H](CC1(C(F)(F)F)CC1)CO2 (single isomer, unassigned) [Compound 54]	

More lines, now with the values behind:

SMILES	Ent. B Max Activity (%) (Table 9)	EC50 (Table 9, read-out: Ent. B EC50)	Ent. B Max Activity (%) (Table 10)	EC50 [1]	other results
COCCN(C)C(=O)C1CC(N2C(=O)c3cccc(c3)S(=O)(=O)Nc3nc(cc(-c4c(C)cccc4C)n3)OC[C@H]2CC(C)C)C1 (some centres unmarked) [Compound 306]					Ent. B Max Activity (%): +++ (+++ is >60%); EC50 (read-out: Ent. B EC50): < 1000 nM
Cc1cccc(C)c1-c1cc2nc(n1)NS(=O)(=O)c1cccc(c1)C(=O)N(C1CC3(CC3)C1)CC(C(C)C)O2 (centres unmarked) [Compound 468]					Ent. B Max Activity (%): ++ (++ is 30-60%); EC50 (read-out: Ent. B EC50): < 1000 nM
Cc1cccc(C)c1-c1cc2nc(n1)NS(=O)(=O)c1cccc(c1)C(=O)N([C@H]1C[C@H](OC(=O)NCc3ccccc3)C1)[C@H](CC(C)C)CO2 (stereo in doubt) [Compound 362]			++ (++ is 30-60%)	< 1000 nM	
Cc1cccc(C)c1-c1cc2nc(n1)NS(=O)(=O)c1cccc(c1)C(=O)N(C1CC(OC(F)(F)F)C1)[C@H](CC(C)C)CO2 (stereo in doubt) [Compound 213]	+++ (+++ is >60%)	< 1000 nM			
Cc1cccc(C)c1-c1cc2nc(n1)NS(=O)(=O)c1cccc(c1)C(=O)N(C1CC3(C1)CC(C(C)(C)O)C3)[C@H](CCC(C)(C)C)CO2 (single isomer, unassigned) [Compound 9]			+++ (+++ is >60%)	< 1000 nM	
Cc1cccc(C)c1-c1cc2cc(n1)NS(=O)(=O)c1cccc(c1)C(=O)N(C1CC3(CC3)C1)[C@H](CC(C)C)CO2 [Compound 389]					Ent. B Max Activity (%): +++ (+++ is >60%); EC50 (read-out: Ent. B EC50): < 1000 nM
COC(=O)N1CC2(CC(N3C(=O)c4cccc(c4)S(=O)(=O)Nc4nc(cc(-c5c(C)cccc5C)n4)OC[C@H]3CC3(C(F)(F)F)CC3)C2)C1 [Compound 453]	+++ (+++ is >60%)	< 1000 nM			
COC(=O)NC1(C)CC2(CC(N3C(=O)c4cccc(c4)S(=O)(=O)Nc4nc(cc(-c5c(C)cccc5C)n4)OC[C@H]3CC(C)(C)C)C2)C1 (single isomer, unassigned) [Compound 95]			+++ (+++ is >60%)	< 1000 nM	
Cc1cccc(C)c1-c1cc2nc(n1)NS(=O)(=O)c1cccc(c1)C(=O)N(C1CC3(COC(=O)N3)C1)[C@H](CC(C)C)CO2 (some centres unmarked) [Compound 256]			++ (++ is 30-60%)	< 1000 nM	
[H][C@]1(N2C(=O)c3cccc(c3)S(=O)(=O)Nc3nc(cc(-c4c(C)cccc4C)n3)OC[C@H]2CC(C)C)C[C@@]2(C[C@H](N(C)CCOC)C2)C1 (some centres unmarked) [Compound 286]	+++ (+++ is >60%)	< 1000 nM			
Cc1cccc(C)c1-c1cc2nc(n1)NS(=O)(=O)c1cccc(c1)C(=O)N(C1CN(C(=O)OC(C)C)C(C)(C)C1)[C@H](CC(C)C)CO2 (stereo partly drawn) [Compound 110, Propan-2-yl 4-[(11R)-6-(2,6-dimethylphenyl)-11-(2-methylpropyl)-2,2,13-trioxo-9-oxa-2λ^6-thia-3,5,12,19-tetraazatricyclo[12.3.1.14,8]nonadeca-1(17),4(19),5,7,14(18),15-hexaen-12-yl]-2,2-dimethylpyrrolidine-1-carboxylate]	+++ (+++ is >60%)	< 1000 nM			
COCCN(C)[C@H]1C[C@]2(C1)C[C@H](N1C(=O)c3cccc(c3)S(=O)(=O)Nc3nc(cc(-c4c(C)cccc4C)n3)OC[C@H]1CC1(C(F)(F)F)CC1)C2 (stereo partly drawn) [Compound 82, (R)-1^6-(2,6-Dimethylphenyl)-6-((2S,4s,6S)-6-((2-methoxyethyl)(methyl)amino)spiro[3.3]heptan-2-yl)-7-((1-(trifluoromethyl)cyclopropyl)methyl)-9-oxa-3-thia-2,6-diaza-1(2,4)-pyrimidina-4(1,3)-benzenacyclononaphan-5-one 3,3-dioxide]	+++ (+++ is >60%)	< 1000 nM			
Cc1cccc(C)c1-c1cc2nc(n1)NS(=O)(=O)c1cccc(c1)C(=O)N([C@H]1C[C@@H](NC(C)C)C1)[C@H](CC(C)C)CO2 [Compound 367]	+++ (+++ is >60%)	< 1000 nM			
Cc1cccc(C)c1-c1cc2nc(n1)NS(=O)(=O)c1cccc(n1)C(=O)N(C1CC3(CC3)C1)[C@H](CC(C)C)CO2 [Compound 164, (11R)-6-(2,6-Dimethylphenyl)-11-isobutyl-2,2-dioxo-12-spiro[2.3]hexan-5-yl-9-oxa-2λ^6-thia-3,5,12,18,19-pentazatricyclo[12.3.1.14,8]nonadeca-1(18),4(19),5,7,14,16-hexaen-13-one]					Ent. B Max Activity (%): +++ (+++ is >60%); EC50 (read-out: Ent. B EC50): < 1000 nM
Cc1cccc(C)c1-c1cc2nc(n1)NS(=O)(=O)c1cccc(c1)C(=O)N(C1CS(=O)(=O)C1)[C@H](CC(C)C)CO2 [Compound 41, (11R)-6-(2,6-Dimethylphenyl)-12-(1,1-dioxothietan-3-yl)-11-isobutyl-2,2-dioxo-9-oxa-2λ^6-thia-3,5,12,19-tetrazatricyclo[12.3.1.14,8]nonadeca-1(18),4(19),5,7,14,16-hexaen-13-one]			+++ (+++ is >60%)	< 1000 nM	
[H][C@]1(N2C(=O)c3cccc(c3)S(=O)(=O)Nc3nc(cc(-c4c(C)cccc4C)n3)OC[C@H]2CC(C)(C)C)C[C@@]2(C[C@H](NC(=O)OC3CC3)C2)C1 (stereo in doubt) [Compound 356]			+++ (+++ is >60%)	< 1000 nM	
Cc1cccc(C)c1-c1cc2nc(n1)NS(=O)(=O)c1cccc(c1)C(=O)N([C@H]1C[C@@H](N3CCC(OCC4CC4)CC3)C1)[C@H](CC(C)C)CO2 [Compound 386]	+++ (+++ is >60%)	< 1000 nM			
CO[C@H]1C[C@@H](N2C(=O)c3cccc(c3)S(=O)(=O)Nc3nc(cc(-c4c(C)cccc4C)n3)OC[C@H]2CC(C)(C)C)C1 (single isomer, unassigned) [Compound 150]					Ent. B Max Activity (%): +++ (+++ is >60%); EC50 (read-out: Ent. B EC50): < 1000 nM
Cc1cccc(C)c1-c1cc2nc(n1)NS(=O)(=O)c1cccc(c1)C(=O)N(C1CC(C)(OC(F)(F)F)C1)[C@H](CC(C)C)CO2 (stereo partly drawn) [Compound 50, (11R)-6-(2,6-dimethylphenyl)-11-isobutyl-12-[3-methyl-3-(trifluoromethoxy)cyclobutyl]-2,2-dioxo-9-oxa-2λ^6-thia-3,5,12,19-tetrazatricyclo[12.3.1.14,8]nonadeca-1(18),4(19),5,7,14,16-hexaen-13-one]			++ (++ is 30-60%)	< 1000 nM	
Cc1cccc(C)c1-c1cc2nc(n1)NS(=O)(=O)c1cccc(c1)C(=O)N(C1CC3(CCN(C4COC4)CC3)C1)[C@H](CC(C)C)CO2 [Compound 24, (11R)-6-(2,6-Dimethylphenyl)-11-isobutyl-12-[7-(oxetan-3-yl)-7-azaspiro[3.5]nonan-2-yl]-2,2-dioxo-9-oxa-2λ^6-thia-3,5,12,19-tetrazatricyclo[12.3.1.14,8]nonadeca-1(18),4(19),5,7,14,16-hexaen-13-one]	+++ (+++ is >60%)	< 1000 nM			
